Experimental data taken from article PMC8241751, “Influence of the Dabcyl group on the cellular uptake of cationic peptides: short oligoarginines as efficient cell-penetrating peptides” (Amino Acids, 2021).

Tests used:
Type in all cases: cell-based, human
HeLa cells [1] = test: Cellular uptake by flow cytometry on HeLa cells; conditions: 30 min; for Cellular uptake in the presence of serum: α-MEM(+), lowest studied concentration (2.5 μM)
Experimental: HeLa cells (8.0 × 10^4/well) in α-MEM( +) were cultured in 24-well microplates overnight at 37 °C. Cells were treated with fluorescently-labelled peptides (2.5, 5 and 10 μM) in α-MEM( +) and α-MEM without 10% BS [α-MEM(–)], respectively, for 30 min at 37 °C. After being washed with phosphate-buffered saline (PBS), cells were incubated with 0.01% trypsin in PBS for 10 min at 37 °C. The collected cells were then centrifuged at 800 g for 5 min at 4 °C, washed twice with PBS, and subjected to flow cytometry analysis (Attune NxT Flow Cytometer, ThermoFisher). Each sample was analysed over 10,000 events.

HeLa cells [2] = test: Confocal microscopy of internalisation into HeLa cells; conditions: 37 °C
Experimental: HeLa cells (2.0 × 10^5 cells) seeded in 35-mm glass-bottomed dishes (Iwaki) were cultured at a 37 °C incubator for 24 h. The cells were then incubated with peptide in α-MEM( +) and α-MEM(–) for 30 min at 37 °C or 4 °C. After washing with PBS( +) containing 0.5% (w/v) heparin, intracellular distribution of the fluorescently-labelled peptides was analysed without fixing using a confocal microscope (FV1000, Olympus). For time-lapse imaging, the cells were placed at 37 °C in a microchamber (MI-IBC-IF, Olympus) attached on the stage of the inverted microscope. The cells were then treated with 5 µM of Dabcyl–Arg6–Lys(Rh)–NH2 or Dabcyl–Arg4–Lys(Cf)–NH2 in α-MEM( +) or α-MEM(–). Time 0 represents the image immediately after the addition of conjugates.

HL-60 cells = test: In vitro cytostatic activity (MTT) on HL-60
Experimental: The cells (HL-60 or MCF-7) were grown to confluency and were plated into 96-well plate with initial cell number of 5 × 10^3 per well. After 24 h incubation at 37 °C, cells were treated with the compounds at 1.28 × 10^–3–100 μM concentration range for 3 h in 200 μL final volume. Control cells were treated with serum free medium at 37 °C for 3 h. After incubation the cells were washed twice with serum free medium. For the analysis of the in vitro cytostatic effect, cells were cultured for an additional 72 h in serum containing medium. On day 4, MTT assay was carried out to determine the IC50 values of the compounds. Briefly, 45 μL of MTT solution was added to each well (2 mg/mL, dissolved in serum-free medium). Following the 4 h incubation, plates were centrifuged at 900 g for 5 min, and the supernatant was removed. The precipitated purple crystals were dissolved in 100 μL DMSO and the absorbance was determined at λ = 540 nm and λ = 620 nm using ELISA plate reader (iEMSReader, Labsystems, Finland). The percent of cytostasis was calculated using the following equation: Cytostatic effect (%) = [1 − (ODtreated/ODcontrol)] × 100; where ODtreated and ODcontrol correspond to the optical densities of the treated and the untreated control cells, respectively. In each case three independent experiments were carried out with four parallel measurements. […] The curves were defined using MicrocalTM Origin (version 9.2) software: cytostasis was plotted as a function of concentration, fitted to a sigmoidal curve, and based on this curve, the IC50 value was determined.

## Dabcyl–RRRRRRK(Rh)–NH2 [Dabcyl–Arg6–Lys(Rh)–NH2, Dabcyl-modified hexaarginine with carboxytetramethylrhodamine on lysine]
HeLa cells [1]; 2.5 µM, 37 °C
  Internalisation in the absence of serum compared to serum (+): twice
HeLa cells [1]; absence of serum, 2.5 µM, 37 °C
  Cellular uptake, times higher than hexaarginine's: 3 times
HeLa cells [1]
  Cellular uptake in the presence of serum: markedly pronounced
HeLa cells [2]; 5 μM, α-MEM(+), time-lapse imaging
  Time needed to get well detectable signal with diffuse cytosolic distribution: 25 min
HeLa cells [2]; 30 min, confocal microscopy
  Threshold concentration above which distribution becomes diffuse: under 5 μM
HeLa cells [2]; α-MEM(+) with serum, 10 µM, 30 min
  Intracellular distribution: diffuse cytosolic localisation
HeLa cells [2]; α-MEM(–), 2.5 μM, 30 min
  Intracellular distribution: diffuse distribution pattern
HeLa cells [2]; α-MEM(–), 5 and 10 μM, 30 min, cell number also decreased
  Morphology of the cells: dramatically changed

## CN(C)c1ccc(C(=O)N[C@@H](CCCNC(=N)N)C(=O)N[C@@H](CCCNC(=N)N)C(=O)N[C@@H](CCCNC(=N)N)C(=O)N[C@@H](CCCNC(=N)N)C(=O)N[C@@H](CCCNC(=N)N)C(=O)N[C@@H](CCCNC(=N)N)C(=O)N[C@@H](CCCCNC(=O)c2ccc3c(c2)C(=O)OC32c3ccc(O)cc3Oc3cc(O)ccc32)C(N)=O)cc1 [Dmab–Arg6–Lys(Cf)–NH2]
HeLa cells [2]; 1-20 μM, confocal microscopy
  Effect on the cell viability (morphology, number of cells): no effect on the cell viability

## Ac–RRRRRRK(Rh)–NH2 [Ac–Arg6–Lys(Rh)–NH2, acetylated hexaarginine with carboxytetramethylrhodamine on lysine]
HeLa cells [1]
  Cellular uptake in the presence of serum: undetectable
HeLa cells [2]; α-MEM(–), 5 and 10 μM, 30 min
  Intracellular distribution: punctate distribution

## CN(C)c1ccc(/N=N/c2ccc(C(=O)N[C@@H](CCCNC(=N)N)C(=O)N[C@@H](CCCNC(=N)N)C(=O)N[C@@H](CCCNC(=N)N)C(=O)N[C@@H](CCCNC(=N)N)C(=O)N[C@@H](CCCNC(=N)N)C(=O)N[C@@H](CCCNC(=N)N)C(=O)N[C@@H](CCCCN)C(N)=O)cc2)cc1 [Dabcyl–Arg6–Lys–NH2]
HL-60 cells; HL-60, 3 h incubation, then 3 days in serum-containing medium, MTT assay, ± sd, three independent experiments with four parallels
  IC50: > 100 µM
HL-60 cells; up to c = 100 μM
  Cytostatic effect on HL-60 cells: no cytostatic effect
